Data set [1] concerns the target T1, Acetylcholinesterase (Homo sapiens, UniProt P22303).
Description: Inhibition of human AChE using acetylthiocholine iodide as substrate preincubated for 20 mins followed by substrate addition and measured every 30 sec for 3 mins by DTNB-based UV analysis
The conditions of data set [2]: buffer.
Description: (§1) Solubility of the compound in PBS buffer incubated overnight at room temperature by HPLC based continuous shake-flask method
For data set [3], the target named is T2, Cholinesterase (Homo sapiens, UniProt P06276).
Description: Inhibition of human BChE using butyrylthiocholineiodide as substrate preincubated for 20 mins followed by substrate addition and measured every 30 sec for 3 mins by DTNB-based UV analysis
In data set [4] the test system is Mus musculus. Put plainly: Anti-alzheimer activity against amyloid beta 25-35 induced learning impairments in Swiss mouse assessed as attenuation of long-term memory at 0.03 mg/kg, ip administered for 7 days and measured on day 10 by passive avoidance test. As to conditions: time 10.0 day. The class given is functional, organism-based.
Data set [5] is described as follows: Neurotoxicity against mouse HT-22 cells assessed as cell viability at 0.75 to 25 uM by MTT assay. Format: toxicity, cell-based. To be noted: ht-22, 25 µM, dose 0.75-25 µM. (Tetrazolium assays rely on reduction of a dye to a coloured formazan, in cell work by metabolically active cells.)
Data set [6] concerns the target T2, Cholinesterase. Put plainly: Pseudo-irreversible inhibition of human BChE assessed as decarbamylation of enzyme by measuring rate constant k4 incubated for 1 hrs.
The target in data set [7] is T2, Cholinesterase. Put plainly: Pseudo-irreversible inhibition of human BChE using butyrylthiocholineiodide as substrate assessed as equilibrium constant Kc preincubated for 20 mins followed by substrate addition and measured every 30 sec for 3 mins by DTNB-based UV analysis. As to conditions: time 23.0 min.
The target of data set [8] is T3, Cannabinoid receptor 2 (Homo sapiens, UniProt P34972). Kind of data set: Displacement of [3H]CP55940 from human CB2 receptor expressed in HEK cells incubated for 3 hrs by competitive assay. The class given is cell-based. (Loss of bound radioactivity is the signal in a displacement assay; it reports binding, not function.)
T3 sequence (P34972 whole entry): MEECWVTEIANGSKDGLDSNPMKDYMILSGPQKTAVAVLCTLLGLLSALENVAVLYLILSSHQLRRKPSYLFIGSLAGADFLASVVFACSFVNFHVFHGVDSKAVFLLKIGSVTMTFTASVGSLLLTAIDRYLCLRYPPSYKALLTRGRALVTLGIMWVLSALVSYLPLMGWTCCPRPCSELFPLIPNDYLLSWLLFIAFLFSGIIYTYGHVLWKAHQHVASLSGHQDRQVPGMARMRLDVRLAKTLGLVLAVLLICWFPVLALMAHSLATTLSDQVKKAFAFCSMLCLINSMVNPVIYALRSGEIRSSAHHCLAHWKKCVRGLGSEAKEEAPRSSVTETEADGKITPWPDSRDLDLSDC
The target in data set [9] is T2, Cholinesterase. Kind of data set: Pseudo-irreversible inhibition of human BChE using butyrylthiocholineiodide as substrate assessed as rate constant k3 preincubated for 20 mins followed by substrate addition and measured every 30 sec for 3 mins by DTNB-based UV analysis. As to conditions: time 23.0 min.
Data set [10] has as its system Mus musculus. Put plainly: Anti-alzheimer activity against amyloid beta 25-35 induced learning impairments in Swiss mouse assessed as attenuation of spatial working memory at 0.03 mg/kg, ip administered for 7 days and measured on day 8 by Y-maze test. Format: functional, organism-based. To be noted: time 8.0 day.
The nature of data set [11]: physchem. To be noted: PBS buffer.
Description: as §1
The target in data set [12] is T2, Cholinesterase. To be noted: time 1.0 hrs.
A short description of data set [13]: Neurotoxicity against mouse HT-22 cells assessed as cell viability at 1 to 25 uM by MTT assay. The class given is toxicity, cell-based. As to conditions: ht-22, 25 µM, dose 1-25 µM.
The target of data set [14] is T1, Acetylcholinesterase. Kind of data set: Inhibition of human AChE using acetylthiocholine iodide as substrate at 10 uM preincubated for 20 mins followed by substrate addition and measured every 30 sec for 3 mins by DTNB-based UV analysis relative to control. As to conditions: time 23.0 min.
For data set [15], the target named is T3, Cannabinoid receptor 2. Kind of data set: Binding affinity to human CB2 receptor expressed in HEK cells at 10 uM relative to control. The class given is cell-based.

Molecules are shown by their SMILES. In brackets after ≈: the same amount, converted by molar mass. Activity calls are given as the source filed them. The rule behind the calls is not given here.

Usually IC50 stands for the concentration needed to halve the response being measured. Read a high IC50 as weaker potency. For orientation: solubility (thermodynamic) means solubility found after equilibrating the solid with the medium. Usually inhibition stands for the change of the read-out against control, counted positive when it falls. A low value points to little suppression.

T1 sequence (P22303 whole entry): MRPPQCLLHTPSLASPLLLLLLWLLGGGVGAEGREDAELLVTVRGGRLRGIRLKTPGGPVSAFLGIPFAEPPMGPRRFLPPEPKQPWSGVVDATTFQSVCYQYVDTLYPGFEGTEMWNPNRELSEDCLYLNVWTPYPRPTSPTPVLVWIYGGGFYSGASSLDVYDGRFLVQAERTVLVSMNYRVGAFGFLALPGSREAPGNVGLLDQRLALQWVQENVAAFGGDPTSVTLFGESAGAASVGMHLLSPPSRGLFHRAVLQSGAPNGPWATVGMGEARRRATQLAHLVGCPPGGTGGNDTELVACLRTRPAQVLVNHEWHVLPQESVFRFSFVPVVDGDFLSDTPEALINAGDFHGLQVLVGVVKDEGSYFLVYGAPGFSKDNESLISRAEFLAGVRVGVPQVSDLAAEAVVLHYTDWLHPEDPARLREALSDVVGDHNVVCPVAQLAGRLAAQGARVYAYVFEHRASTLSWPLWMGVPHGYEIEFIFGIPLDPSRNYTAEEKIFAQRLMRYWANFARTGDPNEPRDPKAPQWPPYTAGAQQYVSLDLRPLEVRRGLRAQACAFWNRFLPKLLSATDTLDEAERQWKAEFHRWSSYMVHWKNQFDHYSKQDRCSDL
T2 sequence (P06276 whole entry): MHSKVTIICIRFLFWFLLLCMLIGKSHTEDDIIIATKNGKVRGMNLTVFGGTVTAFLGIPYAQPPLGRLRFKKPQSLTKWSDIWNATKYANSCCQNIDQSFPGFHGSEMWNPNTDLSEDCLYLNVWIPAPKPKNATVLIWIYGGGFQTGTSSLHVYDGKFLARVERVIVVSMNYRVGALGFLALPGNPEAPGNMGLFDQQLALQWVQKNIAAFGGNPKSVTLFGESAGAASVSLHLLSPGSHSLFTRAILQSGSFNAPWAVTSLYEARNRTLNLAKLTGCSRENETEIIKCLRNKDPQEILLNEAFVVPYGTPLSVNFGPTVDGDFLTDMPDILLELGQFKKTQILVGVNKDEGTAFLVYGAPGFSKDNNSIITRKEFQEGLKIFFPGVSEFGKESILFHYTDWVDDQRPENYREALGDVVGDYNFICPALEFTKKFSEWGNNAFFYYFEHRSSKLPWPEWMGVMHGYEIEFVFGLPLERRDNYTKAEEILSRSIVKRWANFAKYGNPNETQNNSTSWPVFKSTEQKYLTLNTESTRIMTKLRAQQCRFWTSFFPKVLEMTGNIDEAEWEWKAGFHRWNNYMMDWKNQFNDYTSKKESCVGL

Take `CCN(CC)C(=O)c1ccc2c(c1)nc(Cc1ccc(OC(=O)NCCCCCCN3CCc4ccccc4C3)cc1)n2CCC(C)C`: the IC50 in [1] was 9520 nM; in data set [3] it was 76.5 nM. The solubility result in data set [2] is recorded as “Insoluble”.
With `CCN(CC)C(=O)c1ccc2c(c1)nc(Cc1ccc(OC(=O)N3CCC3)cc1)n2CCC(C)C`, the outcome in data set [4] and in data set [10] was Active. For the same compound, the values for the 50% inhibitory concentration (IC50) in [1] and in data set [8] were 631 nM and 5010 nM, respectively. In addition, the Activity entry in data set [5] is recorded as “Non-Toxic”. Further, the K amounted to 0.74 h⁻¹ in data set [6], 3 µM in [7] and 8.9 min⁻¹ in data set [9]. The compound further registered a thermodynamic solubility in [11] of 7.2 µg/mL (≈ 15.1 µM). The T1/2 in data set [12] turned out to be 56.3 min.
`CCN(CC)C(=O)c1ccc2c(c1)nc(Cc1ccc(O)cc1)n2CCC(C)C`: the Activity result in [13] is “Non-Toxic”.
The compound `CCCCCCCNC(=O)Oc1ccc2c(c1)CN1CCc3ccccc3C1N2C` (stereo unspecified) gave an inhibition in data set [14] of 39%. In data set [11], the solubility (thermodynamic) was less than 1 µg/mL.
Regarding `CCCCCCCNC(=O)Oc1ccc(Cc2nc3cc(C(=O)Nc4ccccc4)ccc3n2CCC(C)C)cc1`, in data set [2], the solubility entry was “Insoluble”. In [14], this compound had an inhibition of 49%. Further, the IC50 in data set [3] turned out to be 15.5 nM.
For `CCCCCCCNC(=O)Oc1ccc(Cc2nc3cc(C(=O)N(CC)CC)ccc3n2CCC(C)C)cc1`, the half-inhibitory concentration (IC50) in [1] was 175 nM; in data set [3], 13.2 nM. For the same compound, the thermodynamic solubility in data set [11] was less than 1 µg/mL. The same compound returned an Activity in [15] of 33%.
Regarding `CCCCCCCNC(=O)Oc1ccc(Cc2nc3cc(C(=O)N4CCCCC4)ccc3n2CCC(C)C)cc1`, the IC50 in data set [1] was determined as 58 nM; in data set [3], 30.6 nM. Moreover, the solubility (thermodynamic) in [11] is less than 1 µg/mL.
With `CCCCCCCNC(=O)Oc1ccc(Cc2nc3cc(C(=O)NCCC(C)C)ccc3n2CCC(C)C)cc1`, the inhibition in [14] is 55%. This compound also gave a solubility (thermodynamic) in [11] of less than 1 µg/mL. Inhibition in [3] was half-maximal at 3.7 nM (IC50).
`CCN(CC)C(=O)c1ccc2c(c1)nc(Cc1ccc(OC(=O)N3CCCC3)cc1)n2CCC(C)C` returned an inhibition in [14] of 16%. This compound also showed a solubility (thermodynamic) in data set [11] of 3.9 µg/mL (≈ 7.95 µM). This compound returned an IC50 in data set [3] of 139 nM. Further, the Activity in [15] is less than 10%.
For `CCCCCCCNC(=O)Oc1ccc(Cc2nc3cc(C(=O)N(CC)CC)ccc3n2CCCCN2CCCCC2)cc1`, the IC50 was 2150 nM in data set [1] and 2410 nM in data set [3]. The compound further returned a thermodynamic solubility in data set [11] of 67 µg/mL (≈ 111 µM).

The record behind these values is ChEMBL document CHEMBL5108043, “Novel benzimidazole-based pseudo-irreversible butyrylcholinesterase inhibitors with neuroprotective activity in an Alzheimer's disease mouse model” (RSC Med Chem, 2022).
